According to ChEMBL document CHEMBL4270553, “Synthesis and anticancer activity of new dihydropyrimidinone derivatives” (Eur J Med Chem, 2018):

How the values were obtained:
MCF7 = test: Cytotoxicity against human MCF7 cells after 24 hrs by MTT assay; format: functional, cell-based; details: MCF7, 24 h
PC-3 = test: cells; details: Homo sapiens, PC-3, 24 h
Description: Cytotoxicity against human PC3 cells after 24 hrs by MTT assay

HCT-116 = test: cells; details: Homo sapiens, HCT-116, 24 h
Description: Cytotoxicity against human HCT116 cells after 24 hrs by MTT assay

BJ = test: Cytotoxicity against human BJ cells; format: cell-based
MRC5 = test: Cytotoxicity against human MRC5 cells; format: cell-based
[1] = target: Vascular endothelial growth factor receptor 2 (Homo sapiens, UniProt P35968)
Sequence of Vascular endothelial growth factor receptor 2 (P35968 whole entry): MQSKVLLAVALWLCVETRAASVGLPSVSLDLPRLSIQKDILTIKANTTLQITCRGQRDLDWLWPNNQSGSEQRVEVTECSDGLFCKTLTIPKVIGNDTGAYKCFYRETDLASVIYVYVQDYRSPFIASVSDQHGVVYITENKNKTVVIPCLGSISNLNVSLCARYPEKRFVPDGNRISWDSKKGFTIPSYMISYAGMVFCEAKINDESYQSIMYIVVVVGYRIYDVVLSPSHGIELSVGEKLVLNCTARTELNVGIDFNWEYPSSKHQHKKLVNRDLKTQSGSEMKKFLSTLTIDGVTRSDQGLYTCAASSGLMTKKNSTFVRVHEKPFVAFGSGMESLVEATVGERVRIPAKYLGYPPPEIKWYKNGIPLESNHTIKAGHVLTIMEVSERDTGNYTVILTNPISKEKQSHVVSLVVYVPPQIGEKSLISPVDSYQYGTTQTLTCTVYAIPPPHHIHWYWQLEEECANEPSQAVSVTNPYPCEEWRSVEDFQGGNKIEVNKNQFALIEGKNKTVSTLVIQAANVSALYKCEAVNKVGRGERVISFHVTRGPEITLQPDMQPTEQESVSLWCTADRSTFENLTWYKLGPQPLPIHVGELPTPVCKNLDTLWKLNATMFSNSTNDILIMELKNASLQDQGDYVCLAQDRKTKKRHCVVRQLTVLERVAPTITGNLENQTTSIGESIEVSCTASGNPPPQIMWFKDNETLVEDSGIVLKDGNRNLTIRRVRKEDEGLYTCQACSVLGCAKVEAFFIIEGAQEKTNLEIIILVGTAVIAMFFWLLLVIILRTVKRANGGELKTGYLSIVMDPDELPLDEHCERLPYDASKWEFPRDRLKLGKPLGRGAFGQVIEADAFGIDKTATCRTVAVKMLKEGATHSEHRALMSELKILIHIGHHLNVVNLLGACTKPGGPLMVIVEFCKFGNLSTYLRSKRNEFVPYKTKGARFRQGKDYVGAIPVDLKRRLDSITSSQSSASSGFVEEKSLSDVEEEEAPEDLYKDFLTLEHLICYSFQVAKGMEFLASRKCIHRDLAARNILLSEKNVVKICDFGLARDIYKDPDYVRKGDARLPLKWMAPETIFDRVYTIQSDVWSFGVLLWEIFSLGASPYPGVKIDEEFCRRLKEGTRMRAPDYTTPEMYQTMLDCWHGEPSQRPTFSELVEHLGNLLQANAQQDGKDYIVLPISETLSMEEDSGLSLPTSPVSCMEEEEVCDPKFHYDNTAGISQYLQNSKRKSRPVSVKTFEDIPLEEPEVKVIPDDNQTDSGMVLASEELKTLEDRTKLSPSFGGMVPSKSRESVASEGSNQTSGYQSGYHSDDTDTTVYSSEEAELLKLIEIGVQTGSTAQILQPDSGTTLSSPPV
Description: Inhibition of human VEGFR-2 incubated for 2.5 hrs by ELISA

[2] = target: T1, Serine/threonine-protein kinase mTOR (Homo sapiens, UniProt P42345); test: Inhibition of mTOR (unknown origin) incubated for 1 hr by ELISA
[3] = Cytotoxicity against human WPE1-NA22 cells; format: cell-based
[4] = target: T1, Serine/threonine-protein kinase mTOR; test: Inhibition of mTOR (unknown origin) incubated for 1 hr by ELISA relative to control; details: concentration not given here
HeLa = test: Cytotoxicity against human HeLa cells; format: functional, cell-based

With `CCOC(=O)C1=C(CSc2nc3cc(C)ccc3[nH]2)N(C)C(=O)NC1c1ccccc1` (centres undefined) the IC50 (MCF7) was 19.4 µM, the IC50 (PC-3) was 22.3 µM and the IC50 (HCT-116) was 9.5 µM.

Compound `CCOC(=O)C1=C(CSc2nc3cc([N+](=O)[O-])ccc3[nH]2)N(C)C(=O)NC1c1ccccc1` (centres undefined) has an IC50 (BJ) of 37.5 µM, an IC50 (MCF7) of 9.39 µM and an IC50 (MRC5) of 44.2 µM. It also gave an IC50 [1] of 1.2 µM, an IC50 [2] of 0.72 µM and an IC50 [3] of 21.7 µM. For the same compound, the IC50 (PC-3) was 9.18 µM, the IC50 (HCT-116) was 7.29 µM and the inhibition [4] was 84.6%. For the same compound, the IC50 (HeLa) was 1.4 µM.

With `COc1cccc2c1C(=O)c1c(O)c3c(c(O)c1C2=O)C[C@@](O)(C(=O)CO)C[C@@H]3O[C@H]1C[C@H](N)[C@H](O)[C@H](C)O1` [DOXORUBICIN] the IC50 (BJ) was 17.6 µM, the IC50 (MRC5) was 14.8 µM and the IC50 [3] was 18.2 µM.

`CNC(=O)c1cc(Oc2ccc(NC(=O)Nc3ccc(Cl)c(C(F)(F)F)c3)cc2)ccn1` [SORAFENIB] gave an IC50 (HeLa) of 0.64 µM.

Compound `CO[C@H]1C[C@@H]2CC[C@@H](C)[C@@](O)(O2)C(=O)C(=O)N2CCCC[C@H]2C(=O)O[C@H]([C@H](C)C[C@@H]2CC[C@@H](O)[C@H](OC)C2)CC(=O)[C@H](C)/C=C(\C)[C@@H](O)[C@@H](OC)C(=O)[C@H](C)C[C@H](C)/C=C/C=C/C=C/1C` [SIROLIMUS] has an inhibition [4] of 94.9% and an IC50 (HeLa) of 0.77 µM.
